Where two headings read alike, the source gives them in different places. Starred links: 1 amine or outer side, 2 acyl side, 3 side chain; linkers in the order of their positions; H or OH if unused. Positions of bridges follow the written chain, without caps; N, C: chain ends. Residues, ends and D or L forms follow the SMILES beside them. *: point of attachment. C18 diacid = O=C(O)CCCCCCCCCCCCCCCCC(=O)*; γGlu = O=C(O)[C@H](CCC(=O)[*:2])N[*:1]; AEEA = NCCOCCOCC(=O)O
Assay: PK of CNP compounds after i.v. and s.c. administration to rats
Settings: male, Sprague Dawley, in vivo, rat; for clearance: read-out: Cl (L/hr/kg), i.v. administration (converted)
Protocol: In order to assess the i.v. and s.c. PK/PD profile of CNP compounds of the present invention, formulations of CNP compounds were administered to rats, blood samples taken and exposure and cGMP response measured.
Quantitative plasma analysis of CNP-compounds: Plasma concentrations of CNP compounds were assayed by plasma protein precipitation and analysed by turboflow liquid chromatography mass spectrometry (TF-LC-MS). Calibrators were prepared by spiking either blank rat or minipig plasma with the relevant CNP compound in the range from 0.5 to 2000 nM. Calibrators, plasma blanks or study samples were prepared for TF-LC-MS by protein precipitation by adding three or four volumes of either ethanol or methanol containing 20 nM of internal standard to one volume of sample. For some compounds, formic acid was added to the precipitation reagent (the final concentration was 1% v/v). After the addition of the precipitation reagent, the mixture was centrifuged at 6200 rpm at 4° C. for 30 minutes. After centrifugation, one volume of supernatant was mixed with two volumes of water (with 1% v/v formic acid). The mixture was analysed by TF-LC-MS using a Cyclone turboflow column (0.5×50 mm, ThermoFisher Scientific) and either a XBridge Protein BEH C4 3.5 μm 300 Åor a XBridge Protein BEH C18 3.5 μm 130 Åanalytical column (both were 50×2.1 mm and obtained from Waters). […] The mass spectrometer was operated in positive ionisation mode. A TSQ Altis mass spectrometer (ThermoFisher Scientific) was used as detector in selected reaction monitoring mode (specific transition were optimised for each CNP compound). Linear calibration curves (weighed 1/×2) were used for calculating the concentration in the plasma samples. Quality control samples were included. The deviation between nominal and calculated concentration in the calibrators and quality control samples were below 15%.
Animals and dosing: Groups of 4-6 rats (male, Sprague Dawley, 350 g at arrival, Janvier, France) per compound and route of administration were dosed with a CNP compound formulated either in A) 8 mM sodium phosphate, 250 mM glycerol, 0.007% polysorbate 20, pH 7.4 or B) 5 mM sodium acetate, 250 mM glycerol, 0.007% polysorbate 20, pH 4.0 depending on the respective compound. S.c. dose was 300 nmol/kg, at a concentration of […] resulting in a dosing volume of 0.3 mL/kg, whereas i.v. dose was 100 nmol/kg, at a concentration of […] resulting in a dosing volume of 1 mL/kg.
Sampling: Sublingual blood samples of 250 uL were collected from unanaesthetised rats in EDTA-coated vials (Microvette 600K3E ref #15.1673.100 Sarstedt) at baseline (-1 h before dosing) as well as 5 min (only i.v. dosed groups), 2 h, 6 h, 24 h, 48 h and 72 h (only for exposure analysis) post-dosing. The blood samples were quickly stored on ice and centrifuged (4° C., 8000 RPM, 5 min) within 10 min of collection. Plasma samples of 50 μL were transferred to each micronic tube for either exposure or cGMP analysis, kept on dry ice and stored in a freezer (−20° C.). Rats had access to food (Altromin) and tap water ad libitum.
Analysis: PK parameters were calculated by non-compartment analysis (NCA) using software Phoenix WinNonlin (ver. 8.1 or later, Certara) for each animal. Clearance (Cl) was calculated as: Dose/AUCinf (linear up, log down). […] Bioavailability was calculated as dose normalized AUC's: (AUC(sc)/Dose(sc))/(AUC(iv)/Dose(iv)). Values in the table are means from individual animals (n=4-6 individual animals). The subsequent plots for cGMP plasma concentration versus time are (Y-axis) mean cGMP concentration (n=4-6 individual animals) after IV dosing and (X-axis) nominal plasma sampling time.
Plasma cGMP are reported as the mean.

[1] = iv, i.v., about 100 nmol/kg, read-out: T½ (hr), i.v. administration (converted)

CC[C@H](C)[C@@H]1NC(=O)[C@H](CCCNC(=N)N)NC(=O)[C@H](CC(=O)O)NC(=O)[C@H](CC(C)C)NC(=O)[C@@H]2CCCN2C(=O)[C@H](CC(C)C)NC(=O)CNC(=O)[C@H](Cc2ccccc2)NC(=O)[C@@H](NC(=O)CNC(=O)[C@H](CO)NC(=O)[C@H](CO)NC(=O)[C@H](CC(C)C)NC(=O)CNC(=O)[C@H](CCCCN)NC(=O)[C@H](CCCCN)NC(=O)[C@H](CCC(N)=O)NC(=O)[C@H](C)NC(=O)CNC(=O)[C@H](CCCCN)NC(=O)[C@H](Cc2ccc(O)cc2)NC(=O)COCCOCCNC(=O)COCCOCCNC(=O)COCCOCCNC(=O)CC[C@H](NC(=O)CC[C@H](NC(=O)CCCCCCCCCCCCCCCCC(=O)O)C(=O)O)C(=O)O)CSSC[C@@H](C(=O)O)NC(=O)CNC(=O)[C@H](CC(C)C)NC(=O)CNC(=O)[C@H](CO)NC(=O)[C@H](CC(C)C)NC(=O)[C@H](CO)NC(=O)CNC1=O [compound 1356] ({C18 diacid-γGlu-γGlu-AEEA-AEEA-AEEA}-YKGAQKKGLSSGCFGLPLDRIGSLSGLGC-OH; disulfide 13-29; C-terminus assumed)
clearance (iv, i.v., about 100 nmol/kg): 0.0141 L/h/kg
half-life [1]: 3.47 h

CC[C@H](C)[C@@H]1NC(=O)[C@H](CCCNC(=N)N)NC(=O)[C@H](CC(=O)O)NC(=O)[C@H](CC(C)C)NC(=O)[C@@H]2CCCN2C(=O)[C@H](CC(C)C)NC(=O)CNC(=O)[C@H](Cc2ccccc2)NC(=O)[C@@H](NC(=O)CNC(=O)[C@H](CCCCN)NC(=O)[C@H](CO)NC(=O)CNC(=O)CNC(=O)[C@H](CCCCN)NC(=O)[C@H](CCCCN)NC(=O)[C@H](CCC(N)=O)NC(=O)[C@H](C)NC(=O)CNC(=O)[C@H](CCC(=O)O)NC(=O)[C@H](Cc2ccc(O)cc2)NC(=O)COCCOCCNC(=O)COCCOCCNC(=O)CC[C@H](NC(=O)CCCCCCCCCCCCCCCCC(=O)O)C(=O)O)CSSC[C@@H](C(=O)O)NC(=O)CNC(=O)[C@H](CC(C)C)NC(=O)CNC(=O)[C@H](CO)NC(=O)[C@H](CC(C)C)NC(=O)[C@H](CO)NC(=O)CNC1=O [compound 1377] ({C18 diacid-γGlu-AEEA-AEEA}-YEGAQKKGGSKGCFGLPLDRIGSLSGLGC-OH; disulfide 13-29)
clearance (iv, i.v., about 100 nmol/kg): 0.00747 L/h/kg
half-life [1]: 6.29 h

CC[C@H](C)[C@@H]1NC(=O)[C@H](CCCNC(=N)N)NC(=O)[C@H](CC(=O)O)NC(=O)[C@H](CC(C)C)NC(=O)[C@@H]2CCCN2C(=O)[C@H](CC(C)C)NC(=O)CNC(=O)[C@H](Cc2ccccc2)NC(=O)[C@@H](NC(=O)CNC(=O)[C@H](CO)NC(=O)[C@H](CO)NC(=O)[C@H](CC(C)C)NC(=O)CNC(=O)[C@H](CCCCN)NC(=O)[C@H](CCCCN)NC(=O)[C@H](CCC(N)=O)NC(=O)[C@H](C)NC(=O)CNC(=O)[C@H](CCC(=O)O)NC(=O)[C@H](Cc2ccc(O)cc2)NC(=O)[C@H](CO)NC(=O)[C@H](CCCNC(=N)N)NC(=O)[C@H](C)NC(=O)[C@H](CCC(N)=O)NC(=O)[C@@H]2CCCN2C(=O)[C@H](Cc2c[nH]cn2)NC(=O)[C@H](CCC(=O)O)NC(=O)[C@H](CCC(N)=O)NC(=O)COCCOCCNC(=O)COCCOCCNC(=O)CC[C@H](NC(=O)CCCCCCCCCCCCCCCCC(=O)O)C(=O)O)CSSC[C@@H](C(=O)O)NC(=O)CNC(=O)[C@H](CC(C)C)NC(=O)CNC(=O)[C@H](CO)NC(=O)[C@H](CC(C)C)NC(=O)[C@H](CO)NC(=O)CNC1=O [compound 1379] ({C18 diacid-γGlu-AEEA-AEEA}-QEHPQARSYEGAQKKGLSSGCFGLPLDRIGSLSGLGC-OH; disulfide 21-37; C-terminus assumed)
clearance (iv, i.v., about 100 nmol/kg): 0.0051 L/h/kg
half-life [1]: 9.8 h

CC[C@H](C)[C@@H]1NC(=O)[C@H](CCCNC(=N)N)NC(=O)[C@H](CC(=O)O)NC(=O)[C@H](CC(C)C)NC(=O)[C@@H]2CCCN2C(=O)[C@H](CC(C)C)NC(=O)CNC(=O)[C@H](Cc2ccccc2)NC(=O)[C@@H](NC(=O)CNC(=O)[C@H](CO)NC(=O)[C@H](CO)NC(=O)[C@H](CC(C)C)NC(=O)CNC(=O)[C@H](CCCCN)NC(=O)[C@H](CCCCN)NC(=O)[C@H](CCC(N)=O)NC(=O)[C@H](C)NC(=O)CNC(=O)[C@H](CCCCN)NC(=O)[C@H](Cc2ccc(O)cc2)NC(=O)[C@H](CCCCN)NC(=O)[C@H](CCCNC(=N)N)NC(=O)[C@H](C)NC(=O)CC[C@H](NC(=O)CC[C@H](NC(=O)CC[C@H](NC(=O)CC[C@H](NC(=O)CCCCCCCCCCCCCCCCC(=O)O)C(=O)O)C(=O)O)C(=O)O)C(=O)O)CSSC[C@@H](C(=O)O)NC(=O)CNC(=O)[C@H](CC(C)C)NC(=O)CNC(=O)[C@H](CO)NC(=O)[C@H](CC(C)C)NC(=O)[C@H](CO)NC(=O)CNC1=O [compound 1386] ({C18 diacid-γGlu-γGlu-γGlu-γGlu}-ARKYKGAQKKGLSSGCFGLPLDRIGSLSGLGC-OH; disulfide 16-32)
clearance (iv, i.v., about 100 nmol/kg): 0.00605 L/h/kg
half-life [1]: 8.16 h

CC[C@H](C)[C@@H]1NC(=O)[C@H](CCCNC(=N)N)NC(=O)[C@H](CC(=O)O)NC(=O)[C@H](CC(C)C)NC(=O)[C@@H]2CCCN2C(=O)[C@H](CC(C)C)NC(=O)CNC(=O)[C@H](Cc2ccccc2)NC(=O)[C@@H](NC(=O)CNC(=O)[C@H](CCCCN)NC(=O)[C@H](CO)NC(=O)[C@@H](NC(=O)CNC(=O)[C@@H](NC(=O)[C@H](Cc2c[nH]cn2)NC(=O)[C@H](CCC(N)=O)NC(=O)[C@H](C)NC(=O)CNC(=O)[C@H](Cc2c[nH]cn2)NC(=O)[C@H](Cc2ccc(O)cc2)NC(=O)[C@H](CCCCN)NC(=O)[C@H](CCCNC(=N)N)NC(=O)[C@H](C)NC(=O)COCCOCCNC(=O)COCCOCCNC(=O)CC[C@H](NC(=O)CC[C@H](NC(=O)CC[C@H](NC(=O)CCCCCCCCCCCCCCCCC(=O)O)C(=O)O)C(=O)O)C(=O)O)[C@@H](C)O)C(C)C)CSSC[C@@H](C(=O)O)NC(=O)CNC(=O)[C@H](CC(C)C)NC(=O)CNC(=O)[C@H](CO)NC(=O)[C@H](CC(C)C)NC(=O)[C@H](CO)NC(=O)CNC1=O [compound 1420] ({C18 diacid-γGlu-γGlu-γGlu-AEEA-AEEA}-ARKYHGAQHTGVSKGCFGLPLDRIGSLSGLGC-OH; disulfide 16-32)
clearance (iv, i.v., about 100 nmol/kg): 0.00764 L/h/kg
half-life [1]: 8.34 h
bioavailability (sc, s.c. bioavailability, about 300 nmol/kg, read-out: F (%), s.c. administration): 49.7%
half-life (sc, s.c., about 300 nmol/kg, read-out: T½ (hr), s.c. administration (converted)): 9.47 h

From patent US20240209028A1, “CNP COMPOUNDS” (priority 2022, published 2024)
